Patent US9732060B2, “Aminotriazine derivative and pharmaceutical composition comprising the same” (Shionogi & Co., Ltd., priority 2013, dated 2017)

Target: human P2X3 receptor (Homo sapiens (Human), UniProt P56373)
Experiment: Evaluation of human P2X3 receptor inhibitory activity in the presence of human serum albumin (HSA)
Format: cell-based
Settings: in the presence of 1% HSA (final concentration)
Protocol: Stably expressing cell line (C6BU-1 cell transfected with human P2X3 receptor gene (GenBank accession number Y07683; was used. The cells were seeded in a 96-well microtiter plate at a concentration of 8000 cells/well and cultured in the medium (7.0% fetal bovine serum, 7.0% horse serum, 1% antibiotic and antifungal, and 2.0% glutamine in DMEM) for one day at 37° C. under 5% carbon dioxide atmosphere. The medium was replaced with 4 μM Fluo-3-AM solution (20 mM HEPES, 137 mM NaCl, 5.37 mM KCl, 0.9 mM MgCl2, 1.26 mM CaCl2, 5.6 mM D-glucose, 2.5 mM probenecid, 0.5% BSA, and 0.04% Pluronic F-127, pH 7.5) and incubated at 37° C. under 5% dioxide carbon atmosphere for one hour. The plate was washed with washing buffer (20 mM HEPES, 137 mM NaCl, 5.27 mM KCl, 0.9 mM MgCl2, 1.26 mM CaCl2, 5.6 mM D-glucose, 2.5 mM probenecid, pH 7.5), and each well was added with 40 μL of this buffer. The plate was placed in High-Throughput Screening System FDSS 3000 (Hamamatsu Photonics K.K.). Measurement of fluorescence intensity by FDSS 3000 was started, and 40 μL of DMSO solutions containing 1% HSA (final concentrations) different concentrations of the test compound as prepared by dilution with dilution buffer (20 mM HEPES, 137 mM NaCl, 5.27 mM KCl, 0.9 mM MgCl2, 1.26 mM CaCl2, 5.6 mM D-glucose, 2.5 mM probenecid, 0.1% Pluronic F-127, pH 7.5) were dispensed to each well through the built-in automatic dispenser. Five minutes after, 50 nM ATP solution (50 μL) prepared by dilution with the dilution buffer was dispensed through the built-in automatic dispenser, and the measurement of fluorescence intensity was continued for 4 min. For each well, the specific maximum fluorescence intensity was calculated as the ratio of the maximum fluorescence intensity after addition of the ATP solution to the fluorescence intensity at the starting of the measurement. […] FDSS software (Hamamatsu Photonics K.K.) was used for calculation of the specific maximum fluorescence intensity. IC50 was calculated using Microsoft Excel (Microsoft Corporation) and XLfit (idbs Ltd.)

Sequence of human P2X3 receptor (P56373 whole entry): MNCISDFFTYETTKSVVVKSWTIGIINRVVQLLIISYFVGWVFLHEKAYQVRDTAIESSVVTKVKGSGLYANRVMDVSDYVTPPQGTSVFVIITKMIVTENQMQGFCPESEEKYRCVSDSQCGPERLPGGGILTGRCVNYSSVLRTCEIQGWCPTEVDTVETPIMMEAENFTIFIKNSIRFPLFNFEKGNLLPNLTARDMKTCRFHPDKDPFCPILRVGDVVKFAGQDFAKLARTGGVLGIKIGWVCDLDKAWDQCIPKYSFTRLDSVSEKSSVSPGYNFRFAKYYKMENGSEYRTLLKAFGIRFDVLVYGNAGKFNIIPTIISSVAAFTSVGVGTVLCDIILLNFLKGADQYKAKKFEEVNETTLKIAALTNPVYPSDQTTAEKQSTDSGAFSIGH

Work on `Cc1ccc(Cn2c(=O)n(C[C@H](C)C(=O)O)c(=O)[nH]/c2=N\c2ccc(Oc3ccc(F)cn3)cc2)cc1` [Compound I-040] yielded an IC50 of 18 nM.
